# Reference: PubChem BioAssay (NCI)
#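 Dose response: 5 concentrations. Exposure: 48 h. Format: 96-well plates. Endpoint: linear interpolation; highest concentration if not reached. Here, GI50 denotes the concentration required for 50% inhibition of growth. TGI marks complete inhibition of growth.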
# System: SN12K1 renal
# Assay: inhibition of tumour cell growth, NCI panel, 48 h
smiles,measurement,value
[C-]#[O+].[Cl][Sn]([Cl])[Cl].[Cl][Sn]([Cl])[Cl].[Pt].c1cnc2c(c1)ccc1cccnc12,GI50,3.37 µM
same,TGI,16.7 µM
